{
  "source": "patent US7531568B2",
  "about": "“PPAR active compounds” (Plexxikon, Inc., priority 2004, dated 2009)",
  "key": {"PPARδ [1]": {"target": "T1, PPARδ (Homo sapiens, UniProt Q03181)", "T1 construct": "P1057. pET BAM6 PPARD G165-Y441-X; made in house; host or cells: E. coli BL21(DE3)RIL", "T1 sequence (Q03181 with tags, fused parts or gaps)": "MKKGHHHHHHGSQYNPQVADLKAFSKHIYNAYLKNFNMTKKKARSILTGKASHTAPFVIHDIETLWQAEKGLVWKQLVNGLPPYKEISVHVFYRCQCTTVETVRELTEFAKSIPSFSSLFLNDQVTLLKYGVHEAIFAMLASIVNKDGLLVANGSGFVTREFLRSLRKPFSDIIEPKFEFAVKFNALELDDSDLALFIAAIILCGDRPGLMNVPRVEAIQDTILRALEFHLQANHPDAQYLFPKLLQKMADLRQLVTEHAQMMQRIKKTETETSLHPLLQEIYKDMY", "test": "homogenous Alpha screen assay, agonist mode, coactivator Biotin-PGC-1 peptide recruitment", "type": "biochemical", "settings": "His-tagged PPAR-LBD 10 nM, 25 nM biotin-PGC-1 peptide, 1 hour room temperature; read-out: EC50 with respect to PPARδ", "excerpt": "(§1) Plasmids encoding the Ligand-binding domains (LBDs) of PPARα, PPARγ, and PPARδ were engineered using common polymerase chain reaction (PCR) methods (pGal4-PPARα-LBD, pGal4-PPARγ-LBD, pGal4-PPARδ-LBD). The relevant DNA sequences and encoded protein sequences used in the assay are shown for each (see below). Complementary DNA cloned from various human tissues was purchased from Invitrogen, and these were used as substrates in the PCR reactions. Specific custom synthetic oligonucleotide primers (Invitrogen, see below) were designed to initiate the PCR product, and also to provide the appropriate restriction enzyme cleavage sites for ligation with the plasmids.\nFor PPARδ protein expression, single colonies were grown for 4 hrs at 37° C. in 200 mL LB media. 16×1 L of fresh TB media in 2.8 L flasks were inoculated with 10 mL of starter culture and grown with constant shaking at 37° C. […] Cells were harvested by centrifugation and pellets frozen at −80° C. until ready for lysis/purification. […]\n(§2) The homogenous Alpha screen assay was used in the agonist mode to determine the ligand dependent interaction of the PPARs (α,δ,γ) with the coactivator Biotin-PGC- 1 peptide (biotin-AHX-[…]-CONH2 (SEQ ID NO: 13), supplied by Wyeth). […] The samples were incubated for 1 hour in the dark at room temperature before taking the reading in the Fusion alpha or Alpha Quest reader. […]"}, "PPARγ": {"target": "T2, PPARγ (Homo sapiens, UniProt P37231)", "T2 sequence (P37231 with tags, fused parts or gaps)": "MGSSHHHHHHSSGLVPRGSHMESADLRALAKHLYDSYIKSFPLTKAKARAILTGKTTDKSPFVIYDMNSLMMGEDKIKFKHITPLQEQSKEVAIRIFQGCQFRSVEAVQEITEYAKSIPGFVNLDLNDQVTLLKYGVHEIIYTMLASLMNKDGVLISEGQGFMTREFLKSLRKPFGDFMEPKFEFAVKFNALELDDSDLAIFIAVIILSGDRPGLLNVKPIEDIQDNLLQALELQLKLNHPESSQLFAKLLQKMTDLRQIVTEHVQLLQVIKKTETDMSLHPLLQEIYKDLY", "test": "homogenous Alpha screen assay, agonist mode, coactivator Biotin-PGC-1 peptide recruitment", "type": "biochemical", "settings": "His-tagged PPAR-LBD 20 nM, 25 nM biotin-PGC-1 peptide, 1 hour room temperature; read-out: EC50 with respect to PPARγ", "excerpt": "as §1\nFor protein expression, plasmids containing genes of interest were transformed into E. coli strain BL21(DE3)RIL (Invitrogen) and transformants selected for growth on LB agar plates containing appropriate antibiotics. Single colonies were grown for 4 hrs at 37° C. in 200 ml LB media. […]. […]\nas §2"}, "[2]": {"settings": "recent large prospective trial; cited from earlier work"}, "PPARδ [3]": {"target": "T3, PPARδ (Homo sapiens, UniProt Q03181)", "T3 sequence (Q03181 1-441)": "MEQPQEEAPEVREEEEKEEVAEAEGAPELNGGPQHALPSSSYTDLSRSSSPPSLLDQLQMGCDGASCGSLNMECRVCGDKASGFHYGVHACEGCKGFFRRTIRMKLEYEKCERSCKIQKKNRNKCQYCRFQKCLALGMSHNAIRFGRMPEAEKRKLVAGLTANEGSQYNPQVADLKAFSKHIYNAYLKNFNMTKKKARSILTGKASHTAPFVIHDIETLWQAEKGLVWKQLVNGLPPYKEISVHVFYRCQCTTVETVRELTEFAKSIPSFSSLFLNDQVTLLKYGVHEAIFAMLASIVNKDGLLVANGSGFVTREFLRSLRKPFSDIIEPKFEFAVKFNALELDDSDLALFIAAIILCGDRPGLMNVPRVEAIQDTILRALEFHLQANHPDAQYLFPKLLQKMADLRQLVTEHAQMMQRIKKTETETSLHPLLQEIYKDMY", "settings": "cited from earlier work"}, "murine PPARα": {"target": "T4, murine PPARα (Mus musculus, UniProt P23204)", "T4 sequence (P23204 1-468)": "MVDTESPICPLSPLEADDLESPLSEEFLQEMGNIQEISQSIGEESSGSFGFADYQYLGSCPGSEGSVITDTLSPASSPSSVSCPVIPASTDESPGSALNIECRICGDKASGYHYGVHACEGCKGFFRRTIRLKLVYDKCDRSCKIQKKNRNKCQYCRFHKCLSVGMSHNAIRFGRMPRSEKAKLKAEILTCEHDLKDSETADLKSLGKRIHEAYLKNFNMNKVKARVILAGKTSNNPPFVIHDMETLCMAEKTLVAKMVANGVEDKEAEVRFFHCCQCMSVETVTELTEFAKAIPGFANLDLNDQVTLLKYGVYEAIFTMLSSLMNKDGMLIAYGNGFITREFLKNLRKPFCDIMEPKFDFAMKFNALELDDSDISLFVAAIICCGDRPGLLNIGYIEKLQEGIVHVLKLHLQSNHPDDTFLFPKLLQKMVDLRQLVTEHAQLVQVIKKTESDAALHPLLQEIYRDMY", "settings": "cited from earlier work"}},
  "data": [
    {"molecule": "COc1ccc2c(c1)c(SCC(=O)O)cn2S(=O)(=O)c1ccc(Cl)c(Cl)c1", "note": "[Compound 27, [1-(3,4-dichloro-benzenesulfonyl)-5-methoxy-1H-indol-3-ylsulfanyl]-acetic acid]", "values": [
      {"measurement": "EC50", "setting": "PPARδ [1]", "value": "< 1000", "unit": "nM"},
      {"measurement": "EC50", "setting": "PPARγ", "value": "< 1000", "unit": "nM"}
    ]},
    {"molecule": "Cc1ccc(C)c(OCCCC(C)(C)C(=O)O)c1", "note": "[gemfibrozil]", "values": [
      {"measurement": "reduction in cardiovascular events or death", "setting": "[2]", "value": 22, "unit": "%"}
    ]},
    {"molecule": "CCCc1c(OCCCOc2ccc(OCC(=O)O)cc2)ccc(C(C)=O)c1O", "note": "[Compound L-165041]", "values": [
      {"measurement": "agonist selectivity for PPARδ over PPARγ", "setting": "PPARδ [3]", "value": "approximately 30 fold"},
      {"measurement": "activity on murine PPARα", "setting": "murine PPARα", "value": "inactive"}
    ]}
  ]
}
